Source: patent US20250116657A1, “HIGH-THROUGHPUT ASSAY FOR CELL MIGRATION, CHEMOTAXIS, AND FUNCTION” (GlaxoSmithKline Intellectual Property Development Limited, priority 2022, published 2025)

B1: ICAM1: Intercellular Adhesion Molecule 1, also known as Cluster of Differentiation 54 (CD54) (protein, UniProt P05362 28-532, looked up)
Intercellular adhesion …: QTSVSPSKVILPRGGSVLVTCSTSCDQPKLLGIETPLPKKELLLPGNNRKVYELSNVQEDSQPMCYSNCPDGQSTAKTFLTVYWTPERVELAPLPSWQPVGKNLTLRCQVEGGAPRANLTVVLLRGEKELKREPAVGEPAEVTTTVLVRRDHHGANFSCRTELDLRPQGLELFENTSAPYQLQTFVLPATPPQLVSPRVLEVDTQGTVVCSLDGLFPVSEAQVHLALGDQRLNPTVTYGNDSFSAKASVSVTAEDEGTQRLTCAVILGNQSQETLQTVTIYSFPAPNVILTKPEVSEGTEVTVKCEAHPRAKVTLNGVPAQPLGPRAQLLLKATPEDNGRSFSCSATLEVAGQLIHKNQTRELRVLYGPRLDERDCPGNWTWPENSQQTPMCQAWGNPLPELKCLKDGTFPLPIGESVTVTRDLEGTYLCRARSTQGEVTRKVTVNVLSPRYEIVIITVVAAAVIMGTAGLSTYLYNRQRKIKKYRLQQAQKGTPMKPNTQATPP

Key:
Assay type in all cases: cell-based
[1] = system: HT29-GFP colorectal cancer cells; assay: HT29-GFP colorectal cancer cell killing within ECM-filled 2-lane Mimetas ORGANOPLATE (GFP cell debris image analysis); settings: 10 μM, 5 days, 7-day old single cell colonies, 750 cells
Protocol: Single cells were seen to be uniformly dispensed across the microfluidic lanes and grew into single cell colonies over time.
2-lane Mimetas ORGANOPLATE® wells harboring 7-day old single cell colonies with either 500 cells or 750 cells were treated with 0 or 10 μM Bortezomib (sold under the brand name Velcade in the United States; CAS 179324-69-7) to observe cell killing within the channel over 5 days.

activated CD3+ T-cells = assay: Activated CD3+ T-cell chemotaxis through end-to-end collagen-matrigel ECM plug in 2-lane Mimetas ORGANOPLATE; settings: for lowest concentration with robust chemotaxis response (migration length) compared to blank media control / lowest concentration with significantly higher total number of responding activated T-cells over blank media controls: 10,000 cells, 96 hours; for lowest concentration with robust chemotaxis response (migration length) compared to blank media control: chemokine refreshed at 48 hours; for lowest concentration with significantly higher total number of responding activated T-cells over blank media controls: one-way ANOVA
Protocol: 50 μl of 37° C. warmed 1×PBS were added to wells in columns 3, 7, 11, 15, 19 and 23 observation windows of Mimetas 2-lane ORGANOPLATE® and stored at 4° C. 5 μl of ice-cold 2 mg/ml collagen mixed with 10% (v/v) of low endotoxin matrigel GFR were added to wells in columns 4, 8, 12, 16, 20 and 24 of chilled Mimetas 2-lane ORGANOPLATE® to potentially create aligned collagen fibers within the microfluidic channels. After the ECM filled all the microfluidic channels, 1 μl of ice-cold ECM was quickly added to wells in columns 1, 2, 5, 6, 9, 10, 13, 14, 17, 18, 21, and 22 to allow for contact to be established between the ECM footprints. 4.5 ml of 37° C. warmed ultrapure water was added to both the ends of sterile MicroClime Environmental Lid and placed atop the Mimetas ORGANOPLATE®. The assembly was placed in a humidified 37° C. cell culture incubator for 45 minutes to ensure complete gelation of all the wells throughout the plate and used for the experiment.
After the gelation, 50 μl of blank media was added to the wells of columns 1, 5, 9, 13, 17 and 21 followed by 50 μl of the desired chemokine at different concentrations in wells of columns 4, 8, 12, 16, 20 and 24. 1:1000 (v/v) NUCLIGHT® Rapid Red dye stained and washed activated CD3+ T-cells were quickly added towards the mouth of the channel allowing increased deposition of cells closer to the mouth of the channel in the wells of column 2, 6, 10, 14, 18 and 22 in RPMI media with 0.5% FBS. CD3+ T-cells were activated for 48 hours prior the experiment with 1:500 (v/v) TRANSACT® beads with 20 IU/mL IL2 in RPMI media with 10% FBS. The ORGANOPLATE® was left undisturbed for 3-5 minutes to allow T-cell settling followed by placing them in humidified 37° C. incubator for the duration of the experiment. Chemokines were replaced as needed after 48 and 96 hours along with the 37° C. warmed ultrapure water within the sterile MicroClime Environmental Lid.
Wells from columns 2, 3, 4, 6, 7, 8, 10, 11, 12, 14, 15, 16, 18, 19, 20, 22, 23 and 24 were imaged in the far red and bright field channels at 4× magnification on days 0, 1, 2, 3, 4, 5 and 6 using an INCELL™ 6500 confocal microscope to identify the cells within the migrating channel. Z-stack of six images at different focal planes 50 μm apart spanning the thickness of the microfluidic channel were captured followed by maximum projection to create a singular image of the migratory channel. Images were then transferred to COLUMBUS™ image segmentation software to extract the X-Y location of the migratory CD3+ T-cells within the microfluidic channel. Area cut-offs and positive signal over background were used to accurately identify the fluorescent T-cells over the background.
The X-Y data of the CD3+ T-cells was transferred to SPOTFIRE™ analytics platform for image representation. The X axis location of the migratory T-cells across 4 different replicate wells were pooled and represented as a horizontal violin plot using the GRAPHPAD™ prism. Kruskal-Wallis test for statistical significance was used to understand the significance of a chemokine concentration in driving increased migration distance into the end-to-end solid ECM channel over blank media controls. Replicates were individually compared amongst each other to ensure significance between the sample and replicate and the lowest significance difference was represented in the graph. […]

naive CD3+ T-cells = assay: Naive CD3+ T-cell chemotaxis through ECM plug in 2-lane Mimetas ORGANOPLATE; settings: 2.5 μM CXCR3 agonist
Protocol: Nuclight rapid red dye stained naive CD3+ T-cells were added closer to the mouth of the channel at the one end (well/frame 2 (102) of extracellular matrix (2 mg/mL collagen+10% (v/v) Matrigel GFR) filled within 2-lane Mimetas ORGANOPLATE®) to evaluate chemotaxis in response to the small molecule agonist applied to other end of the extracellular matrix plug (well/frame 4 (104)). Well/frame 1 (101) was filled with blank media. […] In order to enhance the adhesion of naïve T-cells to the extracellular matrix, 1 μg/mL of ICAM1 (Intercellular Adhesion Molecule 1, also known as Cluster of Differentiation 54 (CD54)) was also spiked into well/frame 2 of the assay system along with the T-cells. Chemotaxis potential was measured via confocal microscopy, identifying the number of naïve T-cells under migration in response to the chemokine gradient generated within the extracellular matrix.

Molecule | lowest concentration with robust chemotaxis response (migration length) compared to blank media control (activated CD3+ T-cells) | lowest concentration with significantly higher total number of responding activated T-cells over blank media controls (activated CD3+ T-cells) | also measured
CC(C)C[C@H](NC(=O)[C@H](Cc1ccccc1)NC(=O)c1cnccn1)B(O)O [Bortezomib] |  |  | number of GFP cell debris aggregates (cell killing) versus 0 μM [1]: statistically significant increase
CXCL10: recombinant chemokine, R&D Systems catalog 266-IP | 37.5 nM | 150 nM | 
CXCL12: recombinant chemokine, R&D Systems catalog 350-NS | 37.5 nM | 18.75 nM | chemotaxis of activated CD3+ T-cells compared to 0 nM (activated CD3+ T-cells; 300 nM, 120 hours, cells in well 2, media in well 1, chemokine in well 4, refreshed after 48 hours): significantly higher chemotaxis
B1 |  |  | effect of addition on number of naive T-cells responding to the chemokine gradient (naive CD3+ T-cells; 1 μg/mL in well 2, 35000 cells): did not influence; impact of inclusion on chemotaxis outcome (naive CD3+ T-cells; 1 μg/mL in well 2, higher naive T-cell numbers (100,000-150,000)): non-significant impact
